Data: patent publication US20240299386A1, “Novel imidazole derivatives having protein kinase inhibitory activity and uses thereof” (INDUSTRY-UNIVERSITY COOPERATION FOUNDATION HANYANG …, priority 2021, published 2024)
Values belong to the molecule of their own block, whether it stands above or below them.

Target: JNK3 (Homo sapiens, UniProt P53779)
Experiment: Measurement of JNK3 enzyme activity
Type: biochemical
From the text: Experimental Example 1. Measurement of JNK3 Enzyme Activity

JNK3, sequence (P53779 whole entry, species assumed): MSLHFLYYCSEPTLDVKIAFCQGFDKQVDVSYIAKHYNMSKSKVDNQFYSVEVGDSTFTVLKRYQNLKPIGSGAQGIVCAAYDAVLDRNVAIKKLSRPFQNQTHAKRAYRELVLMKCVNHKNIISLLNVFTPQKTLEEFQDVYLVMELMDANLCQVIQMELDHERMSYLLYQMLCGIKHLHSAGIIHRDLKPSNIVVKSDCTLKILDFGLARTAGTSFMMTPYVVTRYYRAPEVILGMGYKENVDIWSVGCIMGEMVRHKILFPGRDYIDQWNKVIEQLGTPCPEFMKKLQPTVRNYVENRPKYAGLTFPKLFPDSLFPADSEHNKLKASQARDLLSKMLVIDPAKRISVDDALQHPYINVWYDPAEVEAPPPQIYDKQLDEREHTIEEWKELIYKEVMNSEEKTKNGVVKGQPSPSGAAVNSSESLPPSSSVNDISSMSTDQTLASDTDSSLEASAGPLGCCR

Structure (SMILES): CNC(=O)C1Cc2nc(-c3ccc4c(c3)OCO4)n(-c3ccnc(NC4CCN(C(=O)C5CC5)C4)n3)c2C1 (single isomer, unassigned) [Compound 24d]
- IC50 (Table 4): > 1000 nM

Structure (SMILES): CNC(=O)C1Cc2nc(-c3ccc(F)c(-c4ccc5ccccc5c4)c3)n(-c3ccnc(N[C@@H]4CCCN(C(=O)C5CC5)C4)n3)c2C1 (stereo partly shown) [Compound 27c]
- IC50 (Table 3): < 30 nM

Structure (SMILES): CCOC(=O)C1Cc2nc(-c3ccc4c(c3)CCO4)n(-c3ccnc(N[C@H]4CCCN(C(=O)C5CC5)C4)n3)c2C1 (stereo partly drawn) [Compound 18e, ethyl 1-(2-(((S)-1-(cyclopropanecarbonyl)piperidin-3-yl)amino)pyrimidin-4-yl)-2-(2,3-dihydrobenzofuran-5-yl)-1,4,5,6-tetracyclopenta[d]imidazol-5-carboxylate]
- IC50 (Table 5): < 30 nM

Structure (SMILES): CNC(=O)C1Cc2nc(-c3ccc(F)c(C(F)(F)F)c3)n(-c3ccnc(N[C@@H]4CCN(C(=O)C5CC5)C4)n3)c2C1 (stereo partly drawn) [Compound 25a, 1-(2-(((R)-1-(cyclopropanecarbonyl)pyrrolidine-3-yl)amino)pyrimidin-4-yl)-2-(4-fluoro-3-(trifluoromethyl)phenyl)-N-methyl-1,4,5,6-tetracyclopenta[d]imidazol-5-carboxamide]
- IC50 (Table 1): > 1000 nM

Structure (SMILES): NC(=O)C1Cc2nc(-c3ccc4c(c3)OCO4)n(-c3ccnc(N[C@@H]4CCN(C(=O)C5CC5)C4)n3)c2C1 (stereo partly drawn) [Compound 21d, 2-(benzo[d][1,3]dioxol-5-yl)-1-(2-(((R)-1-(cyclopropanecarbonyl)pyrrolidine-3-yl)amino)pyrimidin-4-yl)-1,4,5,6-tetracyclopenta[d]imidazol-5-carboxamide]
- IC50 (Table 4): > 1000 nM

Structure (SMILES): NC(=O)C1Cc2nc(-c3ccc(Cl)c(Cl)c3)n(-c3ccnc(N[C@@H]4CCCN(C(=O)C5CC5)C4)n3)c2C1 (stereo partly drawn) [Compound 23b, 1-(2-(((R)-1-(cyclopropanecarbonyl)piperidin-3-yl)amino)pyrimidin-4-yl)-2-(3,4-dichlorophenyl)-1,4,5,6-tetracyclopenta[d]imidazol-5-carboxamide]
- IC50 (Table 2): < 30 nM

Structure (SMILES): CCOC(=O)C1Cc2nc(-c3ccc(F)c(C(F)(F)F)c3)n(-c3ccnc(N[C@H]4CCN(C(=O)C5CC5)C4)n3)c2C1 (stereo partly drawn) [Compound 16a, ethyl 1-(2-(((S)-1-(cyclopropanecarbonyl)pyrrolidine-3-yl)amino)pyrimidin-4-yl)-2-(4-fluoro-3-(trifluoromethyl)phenyl)-1,4,5,6-tetracyclopenta[d]imidazol-5-carboxylate]
- IC50 (Table 1): > 1000 nM

Structure (SMILES): CNC(=O)C1Cc2nc(-c3ccc4c(c3)OCO4)n(-c3ccnc(N[C@@H]4CCN(C(=O)C5CC5)C4)n3)c2C1 (stereo partly shown) [Compound 25d]
- IC50 (Table 4): < 30 nM

Structure (SMILES): NC(=O)C1Cc2nc(-c3ccc4c(c3)OCO4)n(-c3ccnc(N[C@H]4CCCN(C(=O)C5CC5)C4)n3)c2C1 (stereo partly drawn) [Compound 22d, 2-(benzo[d][1,3]dioxol-5-yl)-1-(2-(((S)-1-(cyclopropanecarbonyl)piperidin-3-yl)amino)pyrimidin-4-yl)-1,4,5,6-tetracyclopenta[d]imidazol-5-carboxamide]
- IC50 (Table 4): < 30 nM

Structure (SMILES): NC(=O)C1Cc2nc(-c3ccc4ccccc4c3)n(-c3ccnc(N[C@@H]4CCN(C(=O)C5CC5)C4)n3)c2C1 (stereo partly drawn) [Compound 21c, 1-(2-(((R)-1-(cyclopropanecarbonyl)pyrrolidine-3-yl)amino)pyrimidin-4-yl)-2-(naphthalen-2-yl)-1,4,5,6-tetracyclopenta[d]imidazol-5-carboxamide]
- IC50 (Table 3): < 30 nM

Structure (SMILES): CCOC(=O)C1Cc2nc(-c3ccc(F)c(C(F)(F)F)c3)n(-c3ccnc(N[C@@H]4CCCN(C(=O)C5CC5)C4)n3)c2C1 (stereo partly drawn) [Compound 19a, ethyl 1-(2-(((R)-1-(cyclopropanecarbonyl)piperidin-3-yl)amino)pyrimidin-4-yl)-2-(4-fluoro-3-(trifluoromethyl)phenyl)-1,4,5,6-tetracyclopenta[d]imidazol-5-carboxylate]
- IC50 (Table 1): < 30 nM

Structure (SMILES): NC(=O)C1Cc2nc(-c3ccc(F)c(C(F)(F)F)c3)n(-c3ccnc(N[C@@H]4CCN(C(=O)C5CC5)C4)n3)c2C1 (stereo partly drawn) [Compound 21a, 1-(2-(((R)-1-(cyclopropanecarbonyl)pyrrolidine-3-yl)amino)pyrimidin-4-yl)-2-(4-fluoro-3-(trifluoromethyl)phenyl)-1,4,5,6-tetracyclopenta[d]imidazol-5-carboxamide]
- IC50 (Table 1): > 1000 nM

Structure (SMILES): NC(=O)C1Cc2nc(-c3ccc(F)c(C(F)(F)F)c3)n(-c3ccnc(NC4CCCN(C(=O)C5CC5)C4)n3)c2C1 (single isomer, unassigned) [Compound 22a]
- IC50 (Table 1): < 30 nM

The next lines start with the values.

- IC50 (Table 4): < 30 nM
Structure (SMILES): CCOC(=O)C1Cc2nc(-c3ccc4c(c3)OCO4)n(-c3ccnc(N[C@@H]4CCN(C(=O)C5CC5)C4)n3)c2C1 (stereo partly drawn) [Compound 17d, ethyl 2-(benzo[d][1,3]dioxol-5-yl)-1-(2-(((R)-1-(cyclopropanecarbonyl)pyrrolidine-3-yl)amino)pyrimidin-4-yl)-1,4,5,6-tetracyclopenta[d]imidazol-5-carboxylate]

- IC50 (Table 3): < 30 nM
Structure (SMILES): NC(=O)C1Cc2nc(-c3ccc4ccccc4c3)n(-c3ccnc(N[C@H]4CCCN(C(=O)C5CC5)C4)n3)c2C1 (stereo partly drawn) [Compound 22c, 1-(2-(((S)-1-(cyclopropanecarbonyl)piperidin-3-yl)amino)pyrimidin-4-yl)-2-(naphthalen-2-yl)-1,4,5,6-tetracyclopenta[d]imidazol-5-carboxamide]

- IC50 (Table 5): < 30 nM
Structure (SMILES): CCOC(=O)C1Cc2nc(-c3ccc4c(c3)CCO4)n(-c3ccnc(N[C@@H]4CCN(C(=O)C5CC5)C4)n3)c2C1 (stereo partly drawn) [Compound 17e, ethyl 1-(2-(((R)-1-(cyclopropanecarbonyl)pyrrolidine-3-yl)amino)pyrimidin-4-yl)-2-(2,3-dihydrobenzofuran-5-yl)-1,4,5,6-tetracyclopenta[d]imidazol-5-carboxylate]

- IC50 (Table 3): < 30 nM
Structure (SMILES): CCOC(=O)C1Cc2nc(-c3ccc4ccccc4c3)n(-c3ccnc(N[C@H]4CCN(C(=O)C5CC5)C4)n3)c2C1 (stereo partly drawn) [Compound 16c, ethyl 1-(2-(((S)-1-(cyclopropanecarbonyl)pyrrolidine-3-yl)amino)pyrimidin-4-yl)-2-(naphthalen-2-yl)-1,4,5,6-tetracyclopenta[d]imidazol-5-carboxylate]

- IC50 (Table 1): < 30 nM
Structure (SMILES): CCOC(=O)C1Cc2nc(-c3ccc(F)c(C(F)(F)F)c3)n(-c3ccnc(N[C@@H]4CCN(C(=O)C5CC5)C4)n3)c2C1 (stereo partly drawn) [Compound 17a, ethyl 1-(2-(((R)-1-(cyclopropanecarbonyl)pyrrolidine-3-yl)amino)pyrimidin-4-yl)-2-(4-fluoro-3-(trifluoromethyl)phenyl)-1,4,5,6-tetracyclopenta[d]imidazol-5-carboxylate]

- IC50 (Table 3): < 30 nM
Structure (SMILES): CCOC(=O)C1Cc2nc(-c3ccc4ccccc4c3)n(-c3ccnc(N[C@H]4CCCN(C(=O)C5CC5)C4)n3)c2C1 (stereo partly drawn) [Compound 18c, ethyl 1-(2-(((S)-1-(cyclopropanecarbonyl)piperidin-3-yl)amino)pyrimidin-4-yl)-2-(naphthalen-2-yl)-1,4,5,6-tetracyclopenta[d]imidazol-5-carboxylate]
